Reference: BindingDB's records for doi:10.1021/jm960596u (National Cancer Institute-Bethesda, 1997)

Columns and labels:
Integrase [1] = biological target: T1, Integrase (Human immunodeficiency virus 1, UniProt Q7ZJM1); assay: Inhibitory concentration to inhibit HIV-1 integrase by 3' -processing method
Integrase [2] = biological target: T1, Integrase; assay: Inhibitory concentration against HIV-1 integrase by strand transfer method

T1 sequence (Q7ZJM1 whole entry): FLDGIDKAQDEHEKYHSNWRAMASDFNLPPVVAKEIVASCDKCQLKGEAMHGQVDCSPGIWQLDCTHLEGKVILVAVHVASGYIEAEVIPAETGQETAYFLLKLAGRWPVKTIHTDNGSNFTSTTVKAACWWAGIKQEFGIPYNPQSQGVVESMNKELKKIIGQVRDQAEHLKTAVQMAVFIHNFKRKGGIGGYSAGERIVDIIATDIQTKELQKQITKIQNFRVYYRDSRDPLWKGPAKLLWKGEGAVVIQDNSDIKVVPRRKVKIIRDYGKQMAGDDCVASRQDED

Row | SMILES | IC50 (Integrase [1]) | IC50 (Integrase [2])
1 | CC1=C(N)C(=NNc2ccc(S(=O)(=O)Nc3nnc(C)s3)cc2)C(=O)C(C)C1=O (stereo not given) [4-(2-Amino-3,5-dimethyl-4,6-dioxo-cyclohex-1-enylazo)-N-(5-methyl-[1,3,4]thiadiazol-2-yl)-benzenesulfonamide] | > 200 µM | > 200 µM
2 | Cc1[nH]n(-c2ccccc2)c(=O)c1N=Nc1ccc(S(N)(=O)=O)cc1 | > 200 µM | > 200 µM
3 | CCC(=O)CC=c1[nH]c2nnc(CCCCc3nnc4[nH]c(=CCC(=O)CC)c(=O)n34)n2c1=O [1-(5-oxo-3-{4-[5-oxo-6-(3-oxopentyl)-5H-imidazo[2,1-c][1,2,4]triazol-3-yl]butyl}-5H-imidazo[2,1-c][1,2,4]triazol-6-yl)-3-pentanone] | > 200 µM | > 200 µM
4 | CC1=C(N)C(=NNc2ccc(S(=O)(=O)Nc3ccccn3)cc2)C(=O)C(C)C1=O (stereo not given) [4-(2-Amino-3,5-dimethyl-4,6-dioxo-cyclohex-1-enylazo)-N-pyridin-2-yl-benzenesulfonamide] | > 200 µM | > 200 µM
5 | CC1=C(N)C(=NNc2ccc(S(=O)(=O)Nc3nccc(C)n3)cc2)C(=O)C(C)C1=O (stereo not given) [4-(2-Amino-3,5-dimethyl-4,6-dioxo-cyclohex-1-enylazo)-N-(4-methyl-pyrimidin-2-yl)-benzenesulfonamide] | > 200 µM | > 200 µM
6 | CC1=C(N)C(=NNc2ccc(S(=O)(=O)Nc3cc(C)nc(C)n3)cc2)C(=O)C(C)C1=O (stereo not given) [4-(2-Amino-3,5-dimethyl-4,6-dioxo-cyclohex-1-enylazo)-N-(2,6-dimethyl-pyrimidin-4-yl)-benzenesulfonamide] | > 200 µM | > 200 µM
7 | CC1=C(N)C(=NNc2ccc(S(=O)(=O)Nc3ncccn3)cc2)C(=O)C(C)C1=O (stereo not given) [4-(2-Amino-3,5-dimethyl-4,6-dioxo-cyclohex-1-enylazo)-N-pyrimidin-2-yl-benzenesulfonamide] | > 200 µM | > 200 µM
8 | CC1=C(N)C(=NNc2ccc(S(=O)(=O)Nc3scc(C)c3C)cc2)C(=O)C(C)C1=O (stereo not given) [4-(2-Amino-3,5-dimethyl-4,6-dioxo-cyclohex-1-enylazo)-N-(3,4-dimethyl-thiophen-2-yl)-benzenesulfonamide] | > 200 µM | > 200 µM

Results, then the compound that gave them:

Row | IC50 (Integrase [1]) | IC50 (Integrase [2]) | SMILES
9 | > 200 µM | > 200 µM | NS(=O)(=O)c1ccc(N=Nc2c(O)n(-c3ccccc3)n(-c3ccccc3)c2=O)cc1 [4-[N'-(3,5-Dioxo-1,2-diphenyl-pyrazolidin-4-ylidene)-hydrazino]-benzenesulfonamide]
10 | > 200 µM | > 200 µM | NS(=O)(=O)c1ccc(N=Cc2c(O)n(-c3ccccc3)n(-c3ccccc3)c2=O)cc1 [4-[(3,5-Dioxo-1,2-diphenyl-pyrazolidin-4-ylidenemethyl)-amino]-benzenesulfonamide]
11 | > 200 µM | > 200 µM | Cc1[nH]n(-c2ccccc2)c(=O)c1N=Nc1ccc(S(=O)(=O)Nc2ccccn2)cc1 [4-(3-Methyl-5-oxo-1-phenyl-4,5-dihydro-1H-pyrazol-4-ylazo)-N-pyridin-2-yl-benzenesulfonamide]
12 | > 200 µM | > 200 µM | Cc1[nH]n(-c2ccccc2)c(=O)c1N=Nc1ccc(S(=O)(=O)Nc2ncccn2)cc1 [4-(3-Methyl-5-oxo-1-phenyl-4,5-dihydro-1H-pyrazol-4-ylazo)-N-pyrimidin-2-yl-benzenesulfonamide]
13 | > 200 µM | > 200 µM | Cc1cc(NS(=O)(=O)c2ccc(N=Nc3c(C)[nH]n(-c4ccccc4)c3=O)cc2)nc(C)n1 [N-(2,6-Dimethyl-pyrimidin-4-yl)-4-(3-methyl-5-oxo-1-phenyl-4,5-dihydro-1H-pyrazol-4-ylazo)-benzenesulfonamide]
14 | > 200 µM | > 200 µM | NS(=O)(=O)c1ccc(NN=C2Sc3nc4ccccc4n3C2=O)cc1 [4-(3-Oxo-2,3-dihydro-benzo[4,5]imidazo[2,1-b]thiazol-2-ylazo)-benzenesulfonamide]
15 | > 200 µM | > 200 µM | CC1=C(N)C(=NNc2ccc(S(=O)(=O)Nc3nccs3)cc2)C(=O)C(C)C1=O (stereo not given) [4-(2-Amino-3,5-dimethyl-4,6-dioxo-cyclohex-1-enylazo)-N-thiazol-2-yl-benzenesulfonamide]
